Experimental data from PubChem BioAssay AID2060355 (Molecular Pharmacology Branch, DTP, NCI, 2025).

System: 485368-065-R4-J2-PDC spheroids with HUVEC/MSC, viability
Test: Anticancer human tumor 485368-065-R4-J2-PDC patient-derived pancreatic carcinoma cell line growth inhibition [TAK]
Details: for IC50: curve of first compound; for viability, T/C: stronger effect = lower value
Outline: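 Drug combinations, each paired with TAK-243 or ipatasertib, were tested on multi-cell spheroids of 60% malignant cells, 25% HUVEC and 15% hMSC. Top concentrations were at or near the clinical Cmax (10 microM if undetermined), decreasing by half-log; viability is given as % test/control.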

[1] = second compound 0.3 µM, first compound 0.0316 µM
[2] = second compound 0.3 µM, first compound 0.1 µM
[3] = second compound 0.3 µM, first compound 0.316 µM
[4] = second compound 0.3 µM, first compound 1 µM
[5] = second compound 0.949 µM, first compound 0.0316 µM
[6] = second compound 0.949 µM, first compound 0.1 µM
[7] = second compound 0.949 µM, first compound 0.316 µM
[8] = second compound 0.949 µM, first compound 1 µM
[9] = second compound 3 µM, first compound 0.0316 µM
[10] = second compound 3 µM, first compound 0.1 µM
[11] = second compound 3 µM, first compound 0.316 µM
[12] = second compound 3 µM, first compound 1 µM
[13] = second compound 9.49 µM, first compound 0.0316 µM
[14] = second compound 9.49 µM, first compound 0.1 µM
[15] = second compound 9.49 µM, first compound 0.316 µM
[16] = second compound 9.49 µM, first compound 1 µM
[17] = second compound 30 µM, first compound 0.0316 µM
[18] = second compound 30 µM, first compound 0.1 µM
[19] = second compound 30 µM, first compound 0.316 µM
[20] = second compound 30 µM, first compound 1 µM
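Note: spheroids exposed to compounds for seven days before readout.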
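Throughout, for viability, T/C: 100% = DMSO vehicle control wells.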

SMILES | IC50 (second compound 0.3 µM) [µM] | IC50 (second compound 0.949 µM) [µM] | IC50 (second compound 3 µM) [µM] | IC50 (second compound 9.49 µM) [µM] | IC50 (second compound 30 µM) [µM] | viability, T/C [1] [%] | viability, T/C [2] [%] | viability, T/C [3] [%] | viability, T/C [4] [%] | viability, T/C [5] [%] | viability, T/C [6] [%] | viability, T/C [7] [%] | viability, T/C [8] [%] | viability, T/C [9] [%] | viability, T/C [10] [%] | viability, T/C [11] [%] | viability, T/C [12] [%] | viability, T/C [13] [%] | viability, T/C [14] [%] | viability, T/C [15] [%] | also measured
COc1c(OCCCN2CCOCC2)ccc2c3n(c(=NC(=O)c4cnc(N)nc4)nc12)CCN3 + CC(C)NCC(C(=O)N1CCN(c2ncnc3c2C(C)CC3O)CC1)c1ccc(Cl)cc1 | 0.133 | 0.161 | 0.0756 | 0.0458 | 0.0151 | 94.5 | 55.6 | 35.1 | 31.2 | 84.6 | 61.1 | 34.3 | 33.2 | 66.5 | 45.6 | 31.5 | 31.2 | 56.6 | 37.2 | 28.4 | viability, T/C (second compound 0.3 µM, first compound 0.00316 µM): 91.7%; viability, T/C (second compound 0.3 µM, first compound 0.01 µM): 76.2%; viability, T/C (second compound 0.949 µM, first compound 0.00316 µM): 96.3%; viability, T/C (second compound 0.949 µM, first compound 0.01 µM): 100%; viability, T/C (second compound 3 µM, first compound 0.00316 µM): 95.9%; viability, T/C (second compound 3 µM, first compound 0.01 µM): 86.8%; viability, T/C (second compound 9.49 µM, first compound 0.00316 µM): 81%; viability, T/C (second compound 9.49 µM, first compound 0.01 µM): 72.8%; viability, T/C [16]: 28%; viability, T/C (second compound 30 µM, first compound 0.00316 µM): 60.4%; viability, T/C (second compound 30 µM, first compound 0.01 µM): 56.5%; viability, T/C [17]: 38.8%; viability, T/C [18]: 29.8%; viability, T/C [19]: 25.3%; viability, T/C [20]: 26.3%
Cc1nc(NC(=O)N2CCCC2C(N)=O)sc1-c1ccnc(C(C)(C)C(F)(F)F)c1 (stereo not given) + CC(C)NCC(C(=O)N1CCN(c2ncnc3c2C(C)CC3O)CC1)c1ccc(Cl)cc1 | > 10 | 9.66 | 7.35 | 2.67 | 1.22 | 88.2 | 79.8 | 81.9 | 88.3 | 93.9 | 92 | 102 | 93.5 | 95.1 | 92.2 | 86 | 73.7 | 80.3 | 85.2 | 74.1 | viability, T/C (second compound 0.3 µM, first compound 3.16 µM): 75.9%; viability, T/C (second compound 0.3 µM, first compound 10 µM): 51.1%; viability, T/C (second compound 0.949 µM, first compound 3.16 µM): 73.4%; viability, T/C (second compound 0.949 µM, first compound 10 µM): 49.3%; viability, T/C (second compound 3 µM, first compound 3.16 µM): 64.3%; viability, T/C (second compound 3 µM, first compound 10 µM): 44.8%; viability, T/C [16]: 66%; viability, T/C (second compound 9.49 µM, first compound 3.16 µM): 46.8%; viability, T/C (second compound 9.49 µM, first compound 10 µM): 37.2%; viability, T/C [17]: 71.5%; viability, T/C [18]: 71.2%; viability, T/C [19]: 59.5%; viability, T/C [20]: 53.5%; viability, T/C (second compound 30 µM, first compound 3.16 µM): 39.7%; viability, T/C (second compound 30 µM, first compound 10 µM): 28.3%
